Reference: paper PMC11212140, “Molecular Bidents with Two Electrophilic Warheads as a New Pharmacological Modality” (ACS Central Science, 2024)

What was measured:
CDK5 = system: T1, CDK5; assay: KiNativ profiling in H3255 cells; assay type: cell-based, human; conditions: 2.5 µM
T1 construct: purchased ActivX Biosciences (KiNativ)
In short: (§1)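 Kinase occupancy was assessed by KiNativ after intact H3255 cells were exposed to ZNL-0056 at 2.5 μM for two hours, with DMSO as the vehicle condition.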

CCRK = system: T2, CCRK; assay: KiNativ profiling in H3255 cells; assay type: cell-based, human; conditions: 2.5 µM; Lys2; DLKPANLLISASGQLK
T2 construct: purchased ActivX Biosciences (KiNativ)
In short: as §1

NEK2 = system: T3, NEK2; assay: KiNativ profiling in H3255 cells; assay type: cell-based, human; conditions: 2.5 µM; Lys2; DLKPANVFLDGK
T3 construct: purchased ActivX Biosciences (KiNativ)
In short: as §1

AKT1 = system: T4, AKT1; assay: KiNativ profiling in H3255 cells; assay type: cell-based, human; conditions: 2.5 µM; ATP Loop; GTFGKVILVK
T4 construct: purchased ActivX Biosciences (KiNativ)
In short: as §1

PITSLRE = system: T5, PITSLRE; assay: KiNativ profiling in H3255 cells; assay type: cell-based, human; conditions: 2.5 µM; Lys2; DLKTSNLLLSHAGILK
T5 construct: purchased ActivX Biosciences (KiNativ)
In short: as §1

ILK = system: T6, ILK; assay: KiNativ profiling in H3255 cells; assay type: cell-based, human; conditions: 2.5 µM
T6 construct: purchased ActivX Biosciences (KiNativ)

H3255 cells = assay: Cell viability assay (CellTiter-Glo); assay type: cell-based; conditions: Homo sapiens, NCI-H3255, 72 h of treatment
Method: (A) Dose–response curves for ZNL-0056 and osimertinib in H3255 cells following 72 h of treatment. Cell viability was assessed with CellTiter-Glo. Data are presented as the mean ± SEM (n = 4). Representative data from three independent experiments are shown. (B) Immunoblot assessment of the effect of ZNL-0056 on EGFR signaling pathway in H3255 cells after 6 h treatment. Representative blots from two independent experiments are shown. […] TEXT PRINTED IN THE PICTURE: (A) ZNL-0056: H3255: IC50 (nM): 471.3 | (A) Osimertinib: H3255: IC50 (nM): 27.76 […]
For infection of Ba/F3 cells, 2.5 mL of viral supernatant and 8 μg/mL polybrene was added to 2.5 million cells per well in six-well plates. […]
Cells were lysed in RIPA buffer (150 mM NaCl, 1.0% IGEPAL® CA-630, 0.5% sodium deoxycholate, 0.1% SDS, 50 mM Tris, pH 8.0) (Sigma, Cat# R0278) with protease inhibitor and phosphatase inhibitor (Roche). The protein concentrations were measured by BCA analysis (Thermo Fisher Scientific, Cat # PI23225). […]
or IRDye 680RD goat anti-Mouse IgG (LICOR Biosciences , Cat # 926-68070) secondary antibodies at room temperature for 1 hour. The membranes were detected on Odyssey CLx system. […]
treatment. Cell viability was determined by using CellTiter-Glo (Promega #G7571) according to the manufacturer’s instructions, measuring luminescence using an Envision plate-reader (PerkinElmer Inc.). […]

[1] = Protein Kinase Domain, ISMADVKFSFQCPGR

SMILES	Inhibition (CDK5; Lys1, NRETHEIVALKR) [%]	Inhibition (CDK5; Lys2, DLKPQNLLINR) [%]	Inhibition (CCRK) [%]	Inhibition (NEK2) [%]	Inhibition (AKT1) [%]	Inhibition (PITSLRE) [%]	Inhibition (ILK; Lys1, WQGNDIVVKVLK) [%]	Inhibition (ILK; [1]) [%]	IC50 (H3255 cells) [nM]
C=CC(=O)Nc1cc(C(=O)Nc2nc3cccc(C)c3n2[C@@H]2CCCCN(C(=O)C=C)C2)cs1 [ZNL-0056]	-65.5	18.0	2.1	-9.4	-1.6	20.7	-6.7	-9.2	471
C=CC(=O)Nc1cc(Nc2nccc(-c3cn(C)c4ccccc34)n2)c(OC)cc1N(C)CCN(C)C [Osimertinib, osimertinib, reference compound]	-40.7	26.2	16.1	-4.3	-19.5	-3.8	-18.1	14.1	27.8
